{"source": "paper PMC6669827", "about": "(Toxins, 2019)", "key": {"human α7 nAChR": {"biological_target": "T1, human α7 nAChR (Homo sapiens, UniProt P36544)", "T1 construct": "expressed in transfected cells; host or cells: Xenopus laevis oocytes injected with cRNA (55.8 ng per oocyte); the cDNA clone was a gift of Dr. J. Michael McIntosh, University of Utah", "T1 sequence (P36544 23-502)": "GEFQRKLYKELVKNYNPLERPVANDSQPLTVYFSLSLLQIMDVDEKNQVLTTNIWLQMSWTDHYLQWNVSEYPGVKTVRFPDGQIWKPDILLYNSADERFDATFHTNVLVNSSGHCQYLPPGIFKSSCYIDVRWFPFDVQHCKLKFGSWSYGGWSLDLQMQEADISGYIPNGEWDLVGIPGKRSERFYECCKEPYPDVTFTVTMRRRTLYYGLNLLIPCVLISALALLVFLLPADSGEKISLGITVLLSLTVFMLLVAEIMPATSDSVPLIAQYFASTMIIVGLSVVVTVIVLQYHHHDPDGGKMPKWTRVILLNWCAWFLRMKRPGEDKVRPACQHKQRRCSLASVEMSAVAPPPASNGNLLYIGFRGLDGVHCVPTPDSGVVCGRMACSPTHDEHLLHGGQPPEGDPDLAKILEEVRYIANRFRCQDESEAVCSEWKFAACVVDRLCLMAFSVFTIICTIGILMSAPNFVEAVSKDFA", "type": "cell-based"}, "human α3β2 nAChR": {"tested_on": "human α3β2 nAChR", "type": "cell-based"}}, "note": "Where “and” joins values, the source holds several entries; their conditions need not be identical. Equal values may be shown once. Entries after “also recorded” stand apart in the source; their conditions may differ."}
{"substance": "αD-PiXXA [F7-3]", "values": [{"measurement": "reversibility of the effect of purified peptide on hα7 nAChR (in words)", "setting": "human α7 nAChR", "value": "slowly reversible; also recorded: very slowly reversible"}, {"measurement": "selectivity hα7 over hα3β2 (in words)", "setting": "human α7 nAChR", "value": "selective for hα7 nAChRs"}, {"measurement": "time to return to the initial activity after starting the washout, hα7 nAChR", "setting": "human α7 nAChR", "value": "21 min and ~ 21 min"}, {"measurement": "IC50", "setting": "human α7 nAChR; read-out: half-maximal inhibitory concentration (IC50) on hα7 nAChRs", "value": 6.2, "unit": "µM"}, {"measurement": "inhibition of the ACh-induced response on hα3β2 nAChRs by purified peptide", "setting": "human α3β2 nAChR", "value": "6.7 ± 3.1", "unit": "%"}, {"measurement": "effect on hα3β2 nAChRs (in words)", "setting": "human α3β2 nAChR; 6.5 μM", "value": "did not significantly affect"}]}
